In patent publication US10800791B2, “Triazole ACC inhibitors and uses thereof” (Gilead Apollo, LLC, priority 2015, dated 2020):
≈ marks a conversion by molar mass, not a printed value. Read-outs that look alike come from different tables or passages of the source.

Key:
[1] = system: Septoria tritici (St); experiment: Growth inhibition assay of fungal pathogens, St; format: cell-based; details: Zymoseptoria tritici, 48 h, read-out: Concentration at 90% Inhibition St, Septoria tritici
Procedure, shortened: (§1)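 Pathogen growth in 17% V8 broth is measured by OD600 at 24 and 48 hours, after blank subtraction, in the presence of compound at 50, 10 and 2 ppm or 2, 0.4 and 0.08 ppm. Inhibition in percent comes from 48-hour readings against the DMSO control.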

[2] = system: C. parapsilosis; experiment: Antifungal Activity Assay (broth microtiter MIC), C. parapsilosis; format: cell-based, Candida parapsilosis; details: Lodderomyces parapsilosis, ATCC22019, 48 h
Procedure, shortened: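 Endpoint: lowest concentration visibly inhibiting growth relative to control after 48 h. Inoculum of 2.5×10^3 CFU/mL final in RPMI 1640+MOPS, prepared from overnight 35° C agar cultures; test compounds diluted in water to 128 μg/mL before plating.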

[3] = system: Collectotrichum graminicola (Cg); experiment: Growth inhibition assay of fungal pathogens, Cg; format: cell-based; details: 48 h, read-out: Concentration at 90% Inhibition Cg, Collectotrichum graminicola
Procedure, shortened: as §1

[4] = system: Fusarium virguliforme (Fv); experiment: Growth inhibition assay of fungal pathogens, Fv; format: cell-based; details: 48 h
Procedure, shortened: as §1

[5] = system: Diplodia maydis (Dm); experiment: Growth inhibition assay of fungal pathogens, Dm; format: cell-based; details: Stenocarpella maydis, 48 h, read-out: Concentration at 90% Inhibition Dm, Diplodia maydis
Procedure, shortened: as §1

[6] = biological target: human (hACC2) (Homo sapiens, UniProt O00763); experiment: In vitro ACC inhibition assay (ADP-Glo), hACC2; format: biochemical; details: 5 nM ACC2, 20 μM ATP, 20 μM acetyl-CoA
Sequence of human (hACC2) (O00763 whole entry): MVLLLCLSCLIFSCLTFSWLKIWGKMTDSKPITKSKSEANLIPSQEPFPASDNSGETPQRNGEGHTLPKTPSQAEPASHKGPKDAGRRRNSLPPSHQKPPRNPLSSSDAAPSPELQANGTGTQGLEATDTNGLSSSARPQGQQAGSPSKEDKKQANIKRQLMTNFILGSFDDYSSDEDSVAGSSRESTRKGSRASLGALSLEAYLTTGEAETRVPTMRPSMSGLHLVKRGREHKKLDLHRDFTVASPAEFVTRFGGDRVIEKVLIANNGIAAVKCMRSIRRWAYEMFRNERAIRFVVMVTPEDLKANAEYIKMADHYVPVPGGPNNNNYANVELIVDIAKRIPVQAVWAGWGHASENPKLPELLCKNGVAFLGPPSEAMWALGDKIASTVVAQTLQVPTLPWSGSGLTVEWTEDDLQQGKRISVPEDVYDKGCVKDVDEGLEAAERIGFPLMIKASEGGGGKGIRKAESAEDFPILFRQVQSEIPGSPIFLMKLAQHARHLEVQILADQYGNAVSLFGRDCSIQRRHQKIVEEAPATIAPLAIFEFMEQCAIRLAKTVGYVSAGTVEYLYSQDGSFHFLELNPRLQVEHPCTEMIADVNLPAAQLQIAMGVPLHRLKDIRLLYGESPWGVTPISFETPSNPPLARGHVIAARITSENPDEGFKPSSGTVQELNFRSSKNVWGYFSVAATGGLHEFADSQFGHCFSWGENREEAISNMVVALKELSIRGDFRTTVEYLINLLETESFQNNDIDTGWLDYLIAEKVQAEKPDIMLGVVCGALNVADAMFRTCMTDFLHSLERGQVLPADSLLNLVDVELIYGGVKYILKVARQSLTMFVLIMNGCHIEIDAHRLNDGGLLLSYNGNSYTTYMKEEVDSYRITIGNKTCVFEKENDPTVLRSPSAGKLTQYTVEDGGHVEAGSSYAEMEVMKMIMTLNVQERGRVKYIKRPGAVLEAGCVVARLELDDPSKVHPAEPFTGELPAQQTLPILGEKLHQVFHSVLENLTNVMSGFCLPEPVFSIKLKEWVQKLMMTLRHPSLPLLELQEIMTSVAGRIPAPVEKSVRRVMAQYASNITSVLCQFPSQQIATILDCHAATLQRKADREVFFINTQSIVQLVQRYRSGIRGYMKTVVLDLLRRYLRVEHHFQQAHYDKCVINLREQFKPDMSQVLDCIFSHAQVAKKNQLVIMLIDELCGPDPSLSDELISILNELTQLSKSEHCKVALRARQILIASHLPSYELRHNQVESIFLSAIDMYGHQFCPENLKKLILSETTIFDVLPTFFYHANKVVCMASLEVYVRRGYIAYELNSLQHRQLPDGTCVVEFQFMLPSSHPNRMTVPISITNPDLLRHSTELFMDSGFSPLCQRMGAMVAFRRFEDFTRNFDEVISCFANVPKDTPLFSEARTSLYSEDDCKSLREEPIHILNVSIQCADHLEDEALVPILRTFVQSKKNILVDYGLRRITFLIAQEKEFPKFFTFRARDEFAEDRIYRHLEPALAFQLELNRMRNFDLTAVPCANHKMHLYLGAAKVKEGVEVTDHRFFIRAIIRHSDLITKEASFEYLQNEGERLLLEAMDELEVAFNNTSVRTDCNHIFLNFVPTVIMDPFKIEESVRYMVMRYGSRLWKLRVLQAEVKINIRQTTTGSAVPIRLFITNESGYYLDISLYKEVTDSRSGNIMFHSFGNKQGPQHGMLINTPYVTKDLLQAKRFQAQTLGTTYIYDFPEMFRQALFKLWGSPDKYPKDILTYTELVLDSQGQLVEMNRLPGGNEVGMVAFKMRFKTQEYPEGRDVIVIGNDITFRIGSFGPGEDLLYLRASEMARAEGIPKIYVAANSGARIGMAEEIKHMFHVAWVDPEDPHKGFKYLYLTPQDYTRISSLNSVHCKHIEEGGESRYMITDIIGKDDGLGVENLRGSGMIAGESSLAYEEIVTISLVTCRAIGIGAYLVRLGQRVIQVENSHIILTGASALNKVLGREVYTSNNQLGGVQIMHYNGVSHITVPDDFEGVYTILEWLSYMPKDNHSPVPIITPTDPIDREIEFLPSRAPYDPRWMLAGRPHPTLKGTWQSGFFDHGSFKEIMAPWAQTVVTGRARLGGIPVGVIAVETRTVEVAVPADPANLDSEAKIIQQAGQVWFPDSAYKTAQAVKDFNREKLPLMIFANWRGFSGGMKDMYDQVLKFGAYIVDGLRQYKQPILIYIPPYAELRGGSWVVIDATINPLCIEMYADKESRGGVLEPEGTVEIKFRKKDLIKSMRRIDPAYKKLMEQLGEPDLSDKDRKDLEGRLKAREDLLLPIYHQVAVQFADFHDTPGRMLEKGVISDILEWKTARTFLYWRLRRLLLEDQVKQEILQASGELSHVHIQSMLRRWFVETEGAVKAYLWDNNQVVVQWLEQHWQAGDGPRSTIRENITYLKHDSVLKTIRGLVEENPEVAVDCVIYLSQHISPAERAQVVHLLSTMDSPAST
Procedure: The detailed procedure is as follows. […] 10 μL ADP glo reagent was added. […] 20 μL kinase detection reagent was added.

[7] = system: Phytophthora capsici (Pc); experiment: Growth inhibition assay of fungal pathogens, Pc; format: cell-based; details: 48 h
Procedure, shortened: as §1

[8] = biological target: fungal (fACC2) (UniProt Q00955); details: read-out: fACC2 (in vitro ACC2 Inhibition Assay, IC50), ADP-Glo, 5 nM ACC2, 20 μM ATP, 20 μM acetyl-CoA
Sequence of fungal (fACC2) (Q00955 whole entry): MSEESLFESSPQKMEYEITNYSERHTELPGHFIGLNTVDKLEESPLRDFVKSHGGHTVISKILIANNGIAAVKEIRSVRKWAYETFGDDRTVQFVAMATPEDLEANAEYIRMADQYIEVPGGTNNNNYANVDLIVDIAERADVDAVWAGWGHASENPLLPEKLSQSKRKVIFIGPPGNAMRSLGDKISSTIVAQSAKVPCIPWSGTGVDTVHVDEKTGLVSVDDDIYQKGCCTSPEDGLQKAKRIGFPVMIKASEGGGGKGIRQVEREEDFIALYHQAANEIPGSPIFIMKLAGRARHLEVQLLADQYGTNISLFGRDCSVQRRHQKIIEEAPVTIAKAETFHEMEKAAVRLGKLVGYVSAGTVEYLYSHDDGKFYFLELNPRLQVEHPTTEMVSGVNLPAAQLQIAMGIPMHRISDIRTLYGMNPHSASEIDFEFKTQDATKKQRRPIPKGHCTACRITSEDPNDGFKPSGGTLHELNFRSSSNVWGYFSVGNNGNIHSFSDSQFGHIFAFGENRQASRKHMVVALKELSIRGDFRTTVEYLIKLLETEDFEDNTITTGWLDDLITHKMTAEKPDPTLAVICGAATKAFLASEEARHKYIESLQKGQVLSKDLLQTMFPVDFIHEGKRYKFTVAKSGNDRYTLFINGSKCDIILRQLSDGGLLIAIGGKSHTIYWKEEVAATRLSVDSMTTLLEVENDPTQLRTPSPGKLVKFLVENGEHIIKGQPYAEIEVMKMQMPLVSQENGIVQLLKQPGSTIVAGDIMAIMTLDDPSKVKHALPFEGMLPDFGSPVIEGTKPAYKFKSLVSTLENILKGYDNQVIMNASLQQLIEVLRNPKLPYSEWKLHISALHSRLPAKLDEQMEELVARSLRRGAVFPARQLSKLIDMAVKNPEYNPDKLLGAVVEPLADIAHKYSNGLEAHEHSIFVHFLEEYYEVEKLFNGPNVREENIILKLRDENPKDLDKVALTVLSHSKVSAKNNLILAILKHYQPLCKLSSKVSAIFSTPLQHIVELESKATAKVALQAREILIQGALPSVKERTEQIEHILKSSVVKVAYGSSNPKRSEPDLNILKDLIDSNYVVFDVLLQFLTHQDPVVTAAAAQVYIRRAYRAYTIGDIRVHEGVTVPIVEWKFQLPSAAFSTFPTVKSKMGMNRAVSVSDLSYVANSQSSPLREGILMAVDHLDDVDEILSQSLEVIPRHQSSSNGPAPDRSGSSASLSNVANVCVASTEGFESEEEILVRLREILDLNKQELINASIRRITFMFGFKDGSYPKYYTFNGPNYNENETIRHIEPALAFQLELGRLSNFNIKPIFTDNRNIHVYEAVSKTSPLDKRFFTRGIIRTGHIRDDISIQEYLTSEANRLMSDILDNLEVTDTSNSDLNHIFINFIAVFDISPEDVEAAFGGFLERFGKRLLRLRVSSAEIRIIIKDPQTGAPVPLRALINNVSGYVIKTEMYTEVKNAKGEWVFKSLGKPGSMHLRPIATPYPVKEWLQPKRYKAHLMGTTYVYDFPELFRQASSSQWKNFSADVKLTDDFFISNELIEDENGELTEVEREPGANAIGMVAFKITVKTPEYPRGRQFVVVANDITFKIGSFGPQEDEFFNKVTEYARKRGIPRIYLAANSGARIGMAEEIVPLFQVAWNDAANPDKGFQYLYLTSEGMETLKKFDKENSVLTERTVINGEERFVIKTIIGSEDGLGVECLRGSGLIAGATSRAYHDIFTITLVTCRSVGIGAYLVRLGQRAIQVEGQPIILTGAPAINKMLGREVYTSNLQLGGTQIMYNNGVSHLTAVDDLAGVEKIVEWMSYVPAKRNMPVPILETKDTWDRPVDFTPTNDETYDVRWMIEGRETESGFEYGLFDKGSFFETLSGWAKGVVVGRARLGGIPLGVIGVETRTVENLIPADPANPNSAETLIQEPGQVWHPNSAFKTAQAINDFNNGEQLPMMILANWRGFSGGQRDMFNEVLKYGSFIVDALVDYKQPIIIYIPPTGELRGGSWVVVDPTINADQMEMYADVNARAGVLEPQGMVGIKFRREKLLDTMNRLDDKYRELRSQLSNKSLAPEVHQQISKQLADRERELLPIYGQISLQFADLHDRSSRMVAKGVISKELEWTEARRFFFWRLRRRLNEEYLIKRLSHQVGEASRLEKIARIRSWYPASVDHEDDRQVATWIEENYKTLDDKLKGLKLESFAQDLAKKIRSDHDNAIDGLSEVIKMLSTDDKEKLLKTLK

[9] = system: Rhizoctonia solani (Rs); experiment: Growth inhibition assay of fungal pathogens, Rs; format: cell-based; details: 48 h
[10] = system: Fusarium moniliforme (Fm); experiment: Growth inhibition assay of fungal pathogens, Fm; format: cell-based; details: for Concentration at 90% Inhibition Fm: Fusarium moniliforme, growth inhibition at 48 hours vs 2% DMSO control; for IC90: Fusarium verticillioides, 48 h, read-out: Concentration at 90% Inhibition Fm
Procedure, shortened: as §1

[11] = growth inhibition at 48 hours vs 2% DMSO control
[12] = growth inhibition vs 2% DMSO control at 48 hours
[13] = read-out: MIC, C. parapsilosis ATCC 22019, Table 3b (additional results), 3 replicates, MIC recorded at 48 h
[14] = read-out: Concentration at 90% Inhibition Fv, Fusarium virguliforme, growth inhibition at 48 hours vs 2% DMSO control
[15] = read-out: Concentration at 90% Inhibition Fv, Fusarium virguliforme, growth inhibition vs 2% DMSO control at 48 hours
[16] = read-out: Concentration at 90% Inhibition Pc, Phytophthora capsici, growth inhibition at 48 hours vs 2% DMSO control
[17] = read-out: Concentration at 90% Inhibition Pc, Phytophthora capsici, growth inhibition vs 2% DMSO control at 48 hours
[18] = read-out: Concentration at 90% Inhibition Rs, Rhizoctonia solani, mycelial plugs, growth inhibition at 48 hours vs 2% DMSO control
[19] = read-out: Concentration at 90% Inhibition Rs, Rhizoctonia solani, mycelial plugs, growth inhibition vs 2% DMSO control at 48 hours

Structure (SMILES) | IC90 [1, 11] [µg/mL] | IC90 [1, 12] [µg/mL] | MIC [2, 13] [µg/mL] | IC90 [3, 11] [µg/mL] | IC90 [3, 12] [µg/mL] | IC90 [4, 14] [µg/mL] | IC90 [4, 15] [µg/mL] | IC90 [5, 11] [µg/mL] | IC90 [5, 12] [µg/mL] | IC50 ([6]; Table 2a) [nM] | IC50 ([6]; Table 2b, additional results) [nM] | IC90 [7, 16] [µg/mL] | IC90 [7, 17] [µg/mL] | IC50 ([8]; Table 2a) [nM] | IC50 ([8]; Table 2b, additional results) [nM] | IC90 [9, 18] [µg/mL] | IC90 [9, 19] [µg/mL] | Concentration at 90% Inhibition Fm [10] | IC90 [10] [µg/mL] | MIC ([2]; read-out: MIC, C. parapsilosis ATCC 22019, Table 3a, 3 replicates, MIC recorded at 48 h) [µg/mL]
COCCCO[C@@H](Cn1c(=O)n(C(C)(C)C(=O)NC(C)C)c(=O)c2c(C)c(-n3nccn3)sc21)c1cc(F)ccc1OC [Compound I-69, (R)-2-(1-(2-(5-fluoro-2-methoxyphenyl)-2-(3-methoxy-propoxy)ethyl)-5-methyl-2,4-dioxo-6-(2H-1,2,3-triazol-2-yl)-1,4-dihydrothieno[2,3-d]pyrimidin-3(2H)-yl)-N-isopropyl-2-methylpropanamide] | 10 (≈ 16.2 µM) | > 50 | 0.25 to 1 (≈ 0.405 to 1.62 µM) | 0.4 (≈ 0.649 µM) | 0.4 (≈ 0.649 µM) | 0.08 (≈ 0.13 µM) | 0.08 (≈ 0.13 µM) | 0.08 (≈ 0.13 µM) | 0.08 (≈ 0.13 µM) | 5 to 10 | 5 to 10 | > 50 | > 50 | 0.4 to 1 | 0.3 to 1 | 0.4 (≈ 0.649 µM) | 0.4 (≈ 0.649 µM) | AA (compound concentration of 0.08 ppm at 90% inhibition of fungal pathogens) | 0.08 (≈ 0.13 µM) | –
C=CCNC(=O)C(C)(C)n1c(=O)c2c(C)c(-n3nccn3)sc2n(C[C@H](OC2CCOCC2)c2cc(F)ccc2OC)c1=O [Compound I-70, (R)—N-allyl-2-(1-(2-(5-fluoro-2-methoxyphenyl)-2-((tetrahydro-2H-pyran-4-yl)oxy)ethyl)-5-methyl-2,4-dioxo-6-(2H-1,2,3-triazol-2-yl)-1,4-dihydrothieno[2,3-d]pyrimidin-3(2H)-yl)-2-methylpropanamide] | > 50 | > 50 | 1.01 to 2 (≈ 1.61 to 3.19 µM) | 2 (≈ 3.19 µM) | 2 (≈ 3.19 µM) | 0.4 (≈ 0.638 µM) | 0.4 (≈ 0.638 µM) | 2 (≈ 3.19 µM) | 2 (≈ 3.19 µM) | 1 to 5 | 1 to 5 | > 50 | > 50 | 1 to 5 | 1 to 5 | 0.4 (≈ 0.638 µM) | 0.4 (≈ 0.638 µM) | AA (compound concentration of 0.08 ppm at 90% inhibition of fungal pathogens) | 0.08 (≈ 0.128 µM) | 0.25 to 1 (≈ 0.399 to 1.6 µM)
